Experimental findings from patent publication US12378186B2, “Inhibitors of meprin α and β” (VIVORYON THERAPEUTICS N.V., priority 2016, dated 2025) are described below.

Where two headings read alike, the source gives them in different places.

For assay [1], the target named is T1, hMeprin β (Homo sapiens, UniProt Q16820).
T1 sequence (Q16820 62-701): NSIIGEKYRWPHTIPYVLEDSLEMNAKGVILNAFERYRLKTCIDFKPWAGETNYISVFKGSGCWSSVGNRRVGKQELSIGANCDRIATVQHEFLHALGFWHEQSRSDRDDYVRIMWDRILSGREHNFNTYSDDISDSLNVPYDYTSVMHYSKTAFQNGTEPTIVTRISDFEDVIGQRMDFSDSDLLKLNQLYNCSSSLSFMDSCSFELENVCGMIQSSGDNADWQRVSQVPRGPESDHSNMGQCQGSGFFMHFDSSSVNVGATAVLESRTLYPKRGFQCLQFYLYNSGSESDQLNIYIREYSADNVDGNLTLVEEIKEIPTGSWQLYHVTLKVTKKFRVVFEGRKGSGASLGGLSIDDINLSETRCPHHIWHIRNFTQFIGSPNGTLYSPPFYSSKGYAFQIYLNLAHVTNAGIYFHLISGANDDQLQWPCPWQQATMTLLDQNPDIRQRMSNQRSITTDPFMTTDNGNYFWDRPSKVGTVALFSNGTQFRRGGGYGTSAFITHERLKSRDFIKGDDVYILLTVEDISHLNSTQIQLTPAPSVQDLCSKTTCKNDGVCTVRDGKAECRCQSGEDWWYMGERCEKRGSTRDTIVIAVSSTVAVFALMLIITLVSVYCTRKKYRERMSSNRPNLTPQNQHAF
Put plainly: Enzymatic assay, cleavage of internally quenched peptide substrate, hMeprin β. In kind it is biochemical. The method, then: (§1) A typical assay of 250 μl total volume measured in black 96 well plates consisted of 100 μl buffer, 50 μl enzyme at a final concentration of 5e-8 M to 5e-9 M, 50 μl substrate (0.15 to 80 μM, in buffer, 0.5% DMSO) and 50 μl inhibitor solution (in buffer, 1% DMSO). In case of 125 μl assay volume (black 96 half area well plates) all volumes were cut in half. Enzymatic activity of ADAMs was measured in 384 well plates with 60 μl total assay volume consisting of 20 μl inhibitor, 20 μl buffer, 10 μl enzyme and 10 μl substrate.
(§2) Ki values were assessed combining 4 substrate concentrations (5-40 μM) with at least 5 inhibitor concentrations. […] Initial velocities were determined and converted into concentration units applying a standard curve obtained after complete conversion of different substrate concentrations under assay conditions. All measurements were performed using a fluorescence plate reader (FLUOstar OPTIMA, BMG Labtech) at 30° C. The kinetic parameters were determined at least in duplicates on separate days. The excitation/emission wavelength was 340/420 nm. The kinetic data was evaluated using GraFit software (version 7.0.3, Erithacus Software).
(§3) The following compounds according to the present invention were synthesized using the above general procedures. IC50 refers to the average IC50 values measured as described above, SD (IC50) refers to the standard deviation of the average IC50 values, Ki refers to the average K; values measured as described above, and SD (Ki) to the standard deviation of the average Ki values.

The target in assay [2] is T2, hMeprin α (Homo sapiens, UniProt Q16819).
T2 sequence (Q16819 66-746): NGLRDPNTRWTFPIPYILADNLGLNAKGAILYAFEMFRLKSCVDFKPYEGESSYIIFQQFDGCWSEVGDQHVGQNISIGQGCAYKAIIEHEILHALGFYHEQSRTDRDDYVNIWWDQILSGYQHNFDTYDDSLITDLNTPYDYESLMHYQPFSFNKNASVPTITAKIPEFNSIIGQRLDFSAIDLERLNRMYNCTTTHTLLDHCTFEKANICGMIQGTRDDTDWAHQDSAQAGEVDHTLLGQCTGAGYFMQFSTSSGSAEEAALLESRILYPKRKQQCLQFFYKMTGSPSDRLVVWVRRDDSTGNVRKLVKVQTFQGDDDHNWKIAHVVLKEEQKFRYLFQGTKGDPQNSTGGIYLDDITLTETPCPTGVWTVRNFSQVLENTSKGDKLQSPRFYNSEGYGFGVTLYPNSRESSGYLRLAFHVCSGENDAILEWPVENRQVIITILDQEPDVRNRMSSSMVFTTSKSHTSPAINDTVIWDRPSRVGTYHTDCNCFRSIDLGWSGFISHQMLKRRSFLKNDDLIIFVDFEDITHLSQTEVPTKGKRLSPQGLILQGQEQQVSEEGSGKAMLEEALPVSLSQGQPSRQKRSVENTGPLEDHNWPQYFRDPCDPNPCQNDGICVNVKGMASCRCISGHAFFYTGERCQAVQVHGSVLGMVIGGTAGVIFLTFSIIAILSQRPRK
Put plainly: biochemical. In kind it is biochemical. The method, then:
as §1, §2, §3

[3] abbreviates: average IC50, 10 μM substrate, 30° C., 40 mM Tris pH 8.0, read-out: Meprin Beta IC50.
Where [4] appears, read: average IC50, 10 μM substrate, 30° C., 40 mM HEPES pH 7.4, read-out: Meprin Alpha IC50.
The mark [5] stands for this setting: average Ki, 4 substrate concentrations (5-40 μM), 30° C., 40 mM HEPES pH 7.4, read-out: Meprin Alpha Ki.

With `O=C(O)CC[C@@H](NCc1cccc(C(=O)O)c1)C(=O)NO` [Example 44, 3-[[[(1R)-3-carboxy-1-(hydroxycarbamoyl)-propyl]amino]methyl]benzoic acid], affinity in assay [1] was put at a Ki of 0.277 µM. The IC50 in assay [1] (setting [3]) amounted to 0.768 µM; in assay [2] (setting [4]), 32.1 µM.

`O=C(O)C[C@H](NCc1cccc(C(=O)O)c1)C(=O)NO` [Example 45, 3-[[[(1S)-1-(carboxymethyl)-2-(hydroxyamino)-2-oxo-ethyl]amino]methyl]benzoic acid] returned a Ki in assay [1] of 0.644 µM. The IC50 in assay [1] (setting [3]) is 1.32 µM; in assay [2] (setting [4]), 60.4 µM.

`O=C(O)C[C@@H](NCc1cccc(C(=O)O)c1)C(=O)NO` [Example 46, 3-[[[(1R)-1-(carboxymethyl)-2-(hydroxyamino)-2-oxo-ethyl]amino]methyl]benzoic acid] came in with a Ki in assay [1] of 0.254 µM. Moreover, the IC50 was determined as 0.548 µM in assay [1] (setting [3]) and 15.1 µM in assay [2] (setting [4]).

Take `O=C(CN(Cc1ccc(F)c(O)c1F)Cc1ccc(F)c(O)c1F)NO` [Example 47, 2-[bis[(2,4-difluoro-3-hydroxy-phenyl)-methyl]amino]ethanehydroxamic acid]: the Ki in assay [1] is 0.012 µM; in assay [2] (setting [5]) it was 0.189 µM. In addition, the IC50 in assay [1] (setting [3]) amounted to 0.023 µM; in assay [2] (setting [4]) it was 0.626 µM.

Turning to `O=C(CN(Cc1cc(F)c(O)c(F)c1)Cc1cc(F)c(O)c(F)c1)NO` [Example 48, 2-[bis[(3,5-difluoro-4-hydroxy-phenyl)methyl]-amino]ethanehydroxamic acid], the figures for the Ki in assay [1] and in assay [2] (setting [5]) were 0.118 µM and 0.263 µM, respectively. The figures for the IC50 in assay [1] (setting [3]) and in assay [2] (setting [4]) were 0.272 µM and 1.3 µM, respectively.

In the case of `O=C(CN(Cc1c(F)ccc(O)c1F)Cc1c(F)ccc(O)c1F)NO` [Example 49, 2-[bis[(2,6-difluoro-3-hydroxy-phenyl)methyl]-amino]ethanehydroxamic acid], the Ki in assay [1] came out at 1.96 µM; in assay [2], 0.998 µM. Also, the IC50 came to 5.51 µM in assay [1] (setting [3]) and 5.6 µM in assay [2].

With `O=C(CN(Cc1ccc(F)c(O)c1)Cc1ccc(F)c(O)c1)NO` [Example 50, 2-[bis[(4-fluoro-3-hydroxy-phenyl)methyl]-amino]ethanehydroxamic acid], the values for the Ki in assay [1] and in assay [2] (setting [5]) were 0.352 µM and 0.306 µM, respectively. In addition, the IC50 was determined as 1.06 µM in assay [1] (setting [3]) and 0.986 µM in assay [2] (setting [4]).

`O=C(CN(Cc1cccc(O)c1F)Cc1cccc(O)c1F)NO` [Example 51, 2-[bis[(2-fluoro-3-hydroxy-phenyl)methyl]-amino]ethanehydroxamic acid]: the Ki in assay [1] was found to be 1.17 µM; in assay [2] (setting [5]) it was 0.335 µM. Also, the IC50 came to 2.91 µM in assay [1] (setting [3]) and 1.21 µM in assay [2] (setting [4]).

Take `O=C(CN(Cc1ccc(Cl)c(O)c1F)Cc1ccc(Cl)c(O)c1F)NO` [Example 52, 2-[bis[(4-chloro-2-fluoro-3-hydroxy-phenyl)-methyl]amino]ethanehydroxamic acid]: the Ki is 0.008 µM in assay [1] and 0.104 µM in assay [2] (setting [5]).

As to `COc1ccc(CN(CC(=O)NO)Cc2ccc(F)c(O)c2F)cc1` [Example 53, 2-[(2,4-difluoro-3-hydroxy-phenyl)methyl-[(4-methoxyphenyl)methyl]amino]ethanehydroxamic acid], the IC50 in assay [1] was found to be 0.331 µM; in assay [2] (setting [4]), 0.995 µM. The figures for the Ki in assay [1] and in assay [2] (setting [5]) were 0.158 µM and 0.328 µM, respectively.

Regarding `CCOC(=O)c1cccc(CN(CC(=O)NO)Cc2cccc(C(=O)OCC)c2)c1` [Example 54, ethyl 3-[[(3-ethoxycarbonylphenyl)methyl-[2-(hydroxyamino)-2-oxo-ethyl]amino]methyl]benzoate], in assay [1], affinity was put at a Ki of 1.76 µM. The IC50 was 94.9 µM in assay [1] (setting [3]) and 7.27 µM in assay [2] (setting [4]).

For the compound `COc1c(F)ccc(CN(CC(=O)NO)Cc2ccc(F)c(OC)c2F)c1F` [Example 58, 2-[bis[(2,4-difluoro-3-methoxy-phenyl)methyl]-amino]ethanehydroxamic acid], the results for the IC50 in assay [1] (setting [3]) and in assay [2] (setting [4]) were 18.2 µM and 2.83 µM, respectively. For the same compound, the Ki in assay [2] (setting [5]) turned out to be 0.726 µM.

In the case of `CCOC(=O)c1cccc(CN(CC(=O)NO)Cc2cccc(C(=O)O)c2)c1` [Example 59, 3-[[(3-ethoxycarbonylphenyl)methyl-[2-(hydroxyamino)-2-oxo-ethyl]amino]methyl]benzoic acid], the IC50 in assay [1] came out at 0.839 µM; in assay [2] (setting [4]), 4.13 µM. For the same compound, the results for the Ki in assay [1] and in assay [2] (setting [5]) were 0.271 µM and 1.47 µM, respectively.

As to `O=C(CN(Cc1ccc(Cl)cc1F)Cc1ccc(Cl)cc1F)NO` [Example 60, 2-[bis[(4-chloro-2-fluoro-phenyl)methyl]-amino]ethanehydroxamic acid], the IC50 in assay [1] was 138 µM; in assay [2] (setting [4]), 3.06 µM. The Ki in assay [2] (setting [5]) was 0.838 µM.

As for `COc1cc(CN(CC(=O)NO)Cc2cc(OC)c(OC)c(OC)c2)cc(OC)c1OC` [Example 61, 2-[bis[(3,4,5-trimethoxyphenyl)methyl]-amino]-ethanehydroxamic acid], the IC50 in assay [1] was determined as 20.1 µM; in assay [2] (setting [4]), 5.32 µM. Besides, in assay [2] (setting [5]), the Ki turned out to be 1.18 µM.

On to `O=C(CN(Cc1ccc2c(c1)OCCO2)Cc1ccc2c(c1)OCCO2)NO` [Example 63, 2-[bis(2,3-dihydro-1,4-benzodioxin-6-yl-methyl)amino]ethanehydroxamic acid], for which the IC50 is 30.6 µM in assay [1] and 1.52 µM in assay [2] (setting [4]). Further, the Ki in assay [2] (setting [5]) was 0.297 µM.

Turning to `COc1c(F)ccc(CN(CCC(=O)NO)Cc2ccc(F)c(OC)c2F)c1F` [Example 64, 3-[bis[(2,4-difluoro-3-methoxy-phenyl)methyl]-amino]propanehydroxamic acid], the IC50 in assay [1] stood at 18.7 µM; in assay [2] (setting [4]), 0.881 µM. Further, the Ki in assay [2] (setting [5]) is 0.332 µM.

For `COc1cc(CN(CCC(=O)NO)Cc2cc(OC)c(OC)c(OC)c2)cc(OC)c1OC` [Example 66, 3-[bis[(3,4,5-trimethoxyphenyl)methyl]amino]-propanehydroxamic acid], the IC50 in assay [1] came out at 90 µM; in assay [2] (setting [4]) it was 19.8 µM.

`COc1cc(CN(CC(=O)NO)Cc2cc(OC)c3c(c2)OCO3)cc2c1OCO2` [Example 68, 2-[bis[(7-methoxy-1,3-benzodioxol-5-yl)methyl]amino]ethanehydroxamic acid]: the IC50 was 4.57 µM in assay [1] and 0.554 µM in assay [2] (setting [4]). The Ki in assay [1] amounted to 1.82 µM; in assay [2] (setting [5]) it was 0.164 µM.

In the case of `O=C(CCN(Cc1ccc2c(c1)OCCO2)Cc1ccc2c(c1)OCCO2)NO` [Example 69, 3-[bis(2,3-dihydro-1,4-benzodioxin-6-ylmethyl)amino]propanehydroxamic acid], the IC50 in assay [1] amounted to 7.59 µM; in assay [2] (setting [4]) it was 0.4 µM. Further, the results for the Ki in assay [1] and in assay [2] (setting [5]) were 3.74 µM and 0.117 µM, respectively.

For the compound `N#Cc1cccc(CN(CCC(=O)NO)Cc2cccc(C#N)c2)c1` [Example 70, 3-[bis[(3-cyanophenyl)methyl]amino]-propanehydroxamic acid], the IC50 stood at 33.1 µM in assay [1] and 2.34 µM in assay [2] (setting [4]). Moreover, the Ki in assay [2] (setting [5]) was 0.696 µM.
